Measured values from patent US9499550B2 (BRISTOL-MYERS SQUIBB COMPANY, priority 2012, dated 2016).
Where two headings read alike, the source gives them in different places.

Columns and labels:
[1] = system: HCV genotype 1a (H77 strain) replicon in HUH-7 cells; assay: HCV replicon luciferase reporter assay, genotype 1a; assay type: cell-based; conditions: Hepatitis C virus, Huh-7, 72 h, 3 days incubation
Method in brief: (§1)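 Replicon inhibition for both genotypes was measured as Renilla luciferase signal (EnduRen, 7.5 μM final, 2 h) after 3-day, 37° C exposure of replicon-bearing HUH-7 cells in 4% FCS DMEM, 0.5% DMSO. The 1b construct carries S1179I; the 1a H77 construct carries P1496L and S2204I. Twenty-point, 3-fold dilutions were fitted four-parametrically for EC50, and CC50 was taken from multiplexed Cell Titer-Blue.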

[2] = system: HCV genotype 1b (Con1) replicon in HUH-7 cells; assay: HCV replicon luciferase reporter assay, genotype 1b; assay type: cell-based; conditions: Hepatitis C virus, Huh-7, 72 h, 3 days incubation
Method in brief: as §1

[3] = HCV genotype 1a replicon luciferase assay, range class, read-out: LE_1a (EC50, range)
[4] = HCV genotype 1b replicon luciferase assay, range class, read-out: LE_1b (EC50, range)
[5] = HCV genotype 1a replicon luciferase, read-out: LE_1a (EC50, range)
[6] = HCV genotype 1b replicon luciferase, read-out: LE_1b (EC50, range)

Compound: COc1ccc2c(O[C@@H]3C[C@H]4C(=O)N[C@]5(C(=O)NS(=O)(=O)C6(C)CC6)C[C@H]5/C=C\CC[C@@H](C)C[C@@H](C)[C@H](NC(=O)OC(C)(C)C(F)(F)F)C(=O)N4C3)nc(N3CCCC3)cc2c1 [Compound 3119, 1,1,1-trifluoro-2-methylpropan-2-yl((2R,6S,7R,9R,13aS,14aR,16aS,Z)-2-((6-methoxy-3-(pyrrolidin-1-yl)isoquinolin-1-yl)oxy)-7,9-dimethyl-14a-(((1-methylcyclopropyl)sulfonyl)carbamoyl)-5,16-dioxo-1,2,3,5,6,7,8,9,10,11,13a,14,14a,15,16,16a-hexadecahydrocyclopropa[e]pyrrolo[1,2-a][1,4]diazacyclopentadecin-6-yl)carbamate]
- EC50 [1, 3]: < 5.46 nM
- EC50 [2, 4]: < 5.46 nM

Compound: CC[C@@H]1C[C@H](C)CC/C=C\[C@@H]2C[C@@]2(C(=O)NS(=O)(=O)C2CC2)NC(=O)[C@@H]2C[C@@H](Oc3nccc4c5c(ccc34)N(C)CCO5)CN2C(=O)[C@H]1NC(=O)O[C@@H]1C[C@@H]2C[C@@H]2C1 [Compound 5314, (1R,3r,5S)-bicyclo[3.1.0]hexan-3-yl((2R,6S,7R,9R,13aS,14aR,16aS,Z)-14a-((cyclopropylsulfonyl)carbamoyl)-7-ethyl-9-methyl-2-((4-methyl-3,4-dihydro-2H-[1,4]oxazino[2,3-f]isoquinolin-7-yl)oxy)-5,16-dioxo-1,2,3,5,6,7,8,9,10,11,13a,14,14a,15,16,16a-hexadecahydrocyclopropa[e]pyrrolo[1,2-a][1,4]diazacyclopentadecin-6-yl)carbamate]
- EC50 ([1]; HCV genotype 1a replicon luciferase, read-out: LE_1a (EC50)): 1.59 nM
- EC50 [1, 5]: < 5.46 nM
- EC50 ([2]; HCV genotype 1b replicon luciferase, read-out: LE_1b (EC50)): 1.06 nM
- EC50 [2, 6]: < 5.46 nM

Compound: COc1cnc(O[C@@H]2C[C@H]3C(=O)N[C@]4(C(=O)NS(=O)(=O)C5(C)CC5)C[C@H]4/C=C\CC[C@H](C)C[C@@H](C)[C@H](NC(=O)OC(C)(C)C)C(=O)N3C2)c2ccc(N(C)C)cc12 [Compound 3135, tert-butyl ((2R,6S,7R,9S,13aS,14aR,16aS,Z)-2-((6-(dimethylamino)-4-methoxyisoquinolin-1-yl)oxy)-7,9-dimethyl-14a-(((1-methylcyclopropyl)sulfonyl)carbamoyl)-5,16-dioxo-1,2,3,5,6,7,8,9,10,11,13a,14,14a,15,16,16a-hexadecahydrocyclopropa[e]pyrrolo[1,2-a][1,4]diazacyclopentadecin-6-yl)carbamate]
- EC50 [1, 3]: < 5.46 nM
- EC50 [2, 4]: < 5.46 nM

Compound: C[C@H]1CC/C=C\[C@@H]2C[C@@]2(C(=O)NS(=O)(=O)C2CC2)NC(=O)[C@@H]2C[C@@H](Oc3nccc4c5c(ccc34)N(C)CCO5)CN2C(=O)[C@@H](NC(=O)O[C@@H]2C[C@@H]3C[C@@H]3C2)[C@H](C)C1 [Compound 5291, (1R,3r,5 S)-bicyclo[3.1.0]hexan-3-yl((2R,6S,7R,9S,13aS,14aR,16aS,Z)-14a-((cyclopropylsulfonyl)carbamoyl)-7,9-dimethyl-2-((4-methyl-3,4-dihydro-2H-[1,4]oxazino[2,3-f]isoquinolin-7-yl)oxy)-5,16-dioxo-1,2,3,5,6,7,8,9,10,11,13a,14,14a,15,16,16a-hexadecahydrocyclopropa[e]pyrrolo[1,2-a][1,4]diazacyclopentadecin-6-yl)carbamate]
- EC50 [1, 5]: < 5.46 nM
- EC50 [2, 6]: < 5.46 nM

Compound: COc1ccc2c(O[C@@H]3C[C@H]4C(=O)N[C@]5(C(=O)NS(=O)(=O)C6(CF)CC6)C[C@H]5/C=C\CC[C@@H](C)C[C@@H](C)[C@H](NC(=O)O[C@]5(C(F)(F)F)CCCOC5)C(=O)N4C3)nc(-c3ccc(OC(C)C)cc3)cc2c1 [Compound 1184]
- EC50 ([1]; GETYPE1A, HCV genotype 1a replicon luciferase, read-out: LE_1a (EC50, range)): 1.01 to 5 nM
- EC50 ([2]; GETYPE1B, HCV genotype 1b replicon luciferase, read-out: LE_1b (EC50, range)): 1.01 to 5 nM

Compound: COc1ccc2c(O[C@@H]3C[C@H]4C(=O)N[C@]5(C(=O)NS(=O)(=O)C6CC6)C[C@H]5/C=C\CC[C@H](C)C[C@@H](C)[C@H](NC(=O)OC(C)(C)C(F)(F)F)C(=O)N4C3)nc(-c3ccc(OC(C)C)cn3)cc2c1 [Compound 5202, 1,1,1-trifluoro-2-methylpropan-2-yl((2R,6S,7R,9S,13aS,14aR,16aS,Z)-14a-((cyclopropylsulfonyl)carbamoyl)-2-((3-(5-isopropoxypyridin-2-yl)-6-methoxyisoquinolin-1-yl)oxy)-7,9-dimethyl-5,16-dioxo-1,2,3,5,6,7,8,9,10,11,13a,14,14a,15,16,16a-hexadecahydrocyclopropa[e]pyrrolo[1,2-a][1,4]diazacyclopentadecin-6-yl)carbamate]
- EC50 [1, 5]: < 5.46 nM
- EC50 [2, 6]: < 5.46 nM

Compound: CC[C@@H]1C[C@@H](C)CC/C=C\[C@@H]2C[C@@]2(C(=O)NS(=O)(=O)C2CC2)NC(=O)[C@@H]2C[C@@H](Oc3nccc4c5c(ccc34)N(C)CCO5)CN2C(=O)[C@H]1NC(=O)OC(C)(C)C(F)(F)F [Compound 5309, 1,1,1-trifluoro-2-methylpropan-2-yl((2R,6S,7R,9S,13aS,14aR,16aS,Z)-14a-((cyclopropylsulfonyl)carbamoyl)-7-ethyl-9-methyl-2-((4-methyl-3,4-dihydro-2H-[1,4]oxazino[2,3-f]isoquinolin-7-yl)oxy)-5,16-dioxo-1,2,3,5,6,7,8,9,10,11,13a,14,14a,15,16,16a-hexadecahydrocyclopropa[e]pyrrolo[1,2-a][1,4]diazacyclopentadecin-6-yl)carbamate]
- EC50 [1, 5]: 4.82 to 103 nM
- EC50 [2, 6]: < 5.46 nM

Compound: COc1ccc2c(O[C@@H]3C[C@H]4C(=O)N[C@]5(C(=O)NS(=O)(=O)C6(C)CC6)C[C@H]5/C=C\CC[C@H](C)C[C@@H](C)[C@H](NC(=O)OC(C)(C)C)C(=O)N4C3)nc(OC(C)C)cc2c1 [Compound 3195, tert-butyl ((2R,6S,7R,9S,13aS,14aR,16aS,Z)-2-((3-isopropoxy-6-methoxyisoquinolin-1-yl)oxy)-7,9-dimethyl-14a-(((1-methylcyclopropyl)sulfonyl)carbamoyl)-5,16-dioxo-1,2,3,5,6,7,8,9,10,11,13a,14,14a,15,16,16a-hexadecahydrocyclopropa[e]pyrrolo[1,2-a][1,4]diazacyclopentadecin-6-yl)carbamate]
- EC50 [1, 5]: 1.01 to 5 nM
- EC50 [2, 6]: 0.51 to 1 nM

Compound: COc1ccc2c(O[C@@H]3C[C@H]4C(=O)N[C@]5(C(=O)NS(=O)(=O)C6(CF)CC6)C[C@H]5/C=C\CC[C@H](C)C[C@@H](C)[C@H](NC(=O)OC5(C(F)(F)F)CCCOC5)C(=O)N4C3)nc(C(F)(F)F)cc2c1 (stereo partly drawn) [Compound 1172, 3-(trifluoromethyl)tetrahydro-2H-pyran-3-yl((2R,6S,7R,9S,13aS,14aR,16aS,Z)-14a-(((1-(fluoromethyl)cyclopropyl)sulfonyl)carbamoyl)-2-((6-methoxy-3-(trifluoromethyl)isoquinolin-1-yl)oxy)-7,9-dimethyl-5,16-dioxo-1,2,3,5,6,7,8,9,10,11,13a,14,14a,15,16,16a-hexadecahydrocyclopropa[e]pyrrolo[1,2-a][1,4]diazacyclopentadecin-6-yl)carbamate]
- EC50 [1, 3]: > 87.4 nM
- EC50 [2, 4]: 4.82 to 103 nM

Compound: CC(C)n1nc(O[C@@H]2C[C@H]3C(=O)N[C@]4(C(=O)NS(=O)(=O)C5CC5)C[C@H]4/C=C\CC[C@H](C)C[C@@H](C)[C@H](NC(=O)OC(C)(C)C(F)(F)F)C(=O)N3C2)c2ccccc2c1=O [Compound 1009, 1,1,1-trifluoro-2-methylpropan-2-yl((2R,6S,7R,9S,13aS,14aR,16aS,Z)-14a-((cyclopropylsulfonyl)carbamoyl)-2-((3-isopropyl-4-oxo-3,4-dihydrophthalazin-1-yl)oxy)-7,9-dimethyl-5,16-dioxo-1,2,3,5,6,7,8,9,10,11,13a,14,14a,15,16,16a-hexadecahydrocyclopropa[e]pyrrolo[1,2-a][1,4]diazacyclopentadecin-6-yl)carbamate]
- EC50 [1, 3]: > 87.4 nM
- EC50 [2, 4]: > 87.4 nM
